*1 amine or outer side, *2 acyl side, *3 side chain or, on linkers, in order; H or OH if unused. Where a SMILES comes first, the peptide text is derived from it. Bridges are numbered along the chain shown (N, C = ends). [ ]: non-standard residue; d: D form. hPhe(3,5-F2-4-CF3) = N[C@@H](CCc1cc(F)c(C(F)(F)F)c(F)c1)C(=O)O; NPrPhe(4-CF3) = CCCN[C@@H](Cc1ccc(C(F)(F)F)cc1)C(=O)O; NMeGly(cPent) = CN[C@H](C(=O)O)C1CCCC1; X9 = C[C@@](N[*:1])(C(=O)[*:2])C1CC1; αMeI = CC[C@H](C)[C@](C)(N)C(=O)O; NMeD = CN[C@@H](CC(=O)O)C(=O)O; NMeL = CN[C@@H](CC(C)C)C(=O)O; αMeV = CC(C)[C@](C)(N)C(=O)O; Sar = CNCC(=O)O
How the values were obtained:
[1] = molecular target: GDP-bound NRAS wild-type protein (Homo sapiens, UniProt P01111); assay: Binding to NRAS by surface plasmon resonance (SPR), Single Cycle Kinetics; conditions: KD ratio NRAS/KRAS, SPR
[2] = molecular target: GDP-bound HRAS wild-type protein (Homo sapiens, UniProt P01112); assay: Binding to HRAS by surface plasmon resonance (SPR), Single Cycle Kinetics; conditions: KD ratio HRAS/KRAS, SPR
GDP-bound HRAS wild-type protein, sequence (P01112 whole entry): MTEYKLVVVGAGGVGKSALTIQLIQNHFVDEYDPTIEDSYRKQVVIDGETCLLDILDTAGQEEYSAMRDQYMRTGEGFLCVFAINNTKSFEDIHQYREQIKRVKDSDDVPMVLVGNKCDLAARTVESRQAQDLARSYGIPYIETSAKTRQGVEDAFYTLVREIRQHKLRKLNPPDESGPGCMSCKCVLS

GDP-bound NRAS wild-type protein, sequence (P01111 whole entry): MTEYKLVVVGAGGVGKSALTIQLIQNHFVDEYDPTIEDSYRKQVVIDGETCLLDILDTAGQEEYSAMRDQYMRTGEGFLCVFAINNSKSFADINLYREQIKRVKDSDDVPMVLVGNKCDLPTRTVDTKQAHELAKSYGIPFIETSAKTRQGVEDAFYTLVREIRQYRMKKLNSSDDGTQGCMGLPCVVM

SMILES	NRAS/KRAS (ratio of KD value with respect to GDP-bound NRAS wild-type protein to KD value with respect to KRAS) [1]	HRAS/KRAS (ratio of KD value with respect to GDP-bound HRAS wild-type protein to KD value with respect to KRAS) [2]
CCO[C@@H]1C[C@H]2C(=O)NC3(CC(C)(C)C3)C(=O)N(C)[C@@H](C3CCCC3)C(=O)N(C)[C@H](C(=O)N(C)C)CC(=O)N(C)[C@@H](C)C(=O)N[C@@H]([C@@H](C)CC)C(=O)N(C)CC(=O)N(C)[C@H]3CCCCCN(C3=O)[C@@H](Cc3ccc(C(F)(F)F)cc3)C(=O)N(C)CC(=O)N[C@@H](CCc3cc(F)c(C(F)(F)F)c(F)c3)C(=O)N2C1 [PP0723]	B (a compound having 3 or more and less than 10 is denoted as B)	B (a compound having 3 or more and less than 10 is denoted as B)
CCO[C@@H]1C[C@H]2C(=O)NC3(CC=CC3)C(=O)N(C)[C@@H](C3CCCC3)C(=O)N(C)[C@H](C(=O)N(C)C)CC(=O)N(C)[C@@H](C)C(=O)N[C@@H]([C@@H](C)CC)C(=O)N(C)CC(=O)N(C)[C@H]3CCCCCN(C3=O)[C@@H](Cc3ccc(C(F)(F)F)cc3)C(=O)N(C)CC(=O)N[C@@H](CCc3cc(F)c(C(F)(F)F)c(F)c3)C(=O)N2C1 [PP0724]	B (a compound having 3 or more and less than 10 is denoted as B)	B (a compound having 3 or more and less than 10 is denoted as B)
CCO[C@@H]1C[C@H]2C(=O)NC3(CCC(F)(F)CC3)C(=O)N(C)[C@@H](C3CCCC3)C(=O)N(C)[C@H](C(=O)N(C)C)CC(=O)N(C)[C@@H](C)C(=O)N[C@@H]([C@@H](C)CC)C(=O)N(C)CC(=O)N(C)[C@H]3CCCCCN(C3=O)[C@@H](Cc3ccc(C(F)(F)F)cc3)C(=O)N(C)CC(=O)N[C@@H](CCc3cc(F)c(C(F)(F)F)c(F)c3)C(=O)N2C1 [PP0725]	B (a compound having 3 or more and less than 10 is denoted as B)	B (a compound having 3 or more and less than 10 is denoted as B)
CCO[C@@H]1C[C@H]2C(=O)NC3(CC(C)(C)C3)C(=O)N(C)[C@@H](C3CCCC3)C(=O)N(C)[C@H](C(=O)N3CCOCC3)CC(=O)N(C)[C@@H](CC(C)C)C(=O)N[C@@H]([C@@H](C)CC)C(=O)N(C)CC(=O)N(C)[C@H]3CCCCCN(C3=O)[C@@H](Cc3ccc(C(F)(F)F)cc3)C(=O)N(C)CC(=O)N[C@@H](CCc3cc(F)c(C(F)(F)F)c(F)c3)C(=O)N2C1 [PP0726]	B (a compound having 3 or more and less than 10 is denoted as B)	B (a compound having 3 or more and less than 10 is denoted as B)
CCO[C@@H]1C[C@H]2C(=O)NC3(CC=CC3)C(=O)N(C)[C@@H](C3CCCC3)C(=O)N(C)[C@H](C(=O)N3CCOCC3)CC(=O)N(C)[C@@H](CC(C)C)C(=O)N[C@@H]([C@@H](C)CC)C(=O)N(C)CC(=O)N(C)[C@H]3CCCCCN(C3=O)[C@@H](Cc3ccc(C(F)(F)F)cc3)C(=O)N(C)CC(=O)N[C@@H](CCc3cc(F)c(C(F)(F)F)c(F)c3)C(=O)N2C1 [PP0727]	B (a compound having 3 or more and less than 10 is denoted as B)	B (a compound having 3 or more and less than 10 is denoted as B)
CCO[C@@H]1C[C@H]2C(=O)NC3(CCC(F)(F)CC3)C(=O)N(C)[C@@H](C3CCCC3)C(=O)N(C)[C@H](C(=O)N3CCOCC3)CC(=O)N(C)[C@@H](CC(C)C)C(=O)N[C@@H]([C@@H](C)CC)C(=O)N(C)CC(=O)N(C)[C@H]3CCCCCN(C3=O)[C@@H](Cc3ccc(C(F)(F)F)cc3)C(=O)N(C)CC(=O)N[C@@H](CCc3cc(F)c(C(F)(F)F)c(F)c3)C(=O)N2C1 [PP0728]	B (a compound having 3 or more and less than 10 is denoted as B)	B (a compound having 3 or more and less than 10 is denoted as B)
CCO[C@@H]1C[C@H]2C(=O)NC3(CCC3)C(=O)N(C)[C@@H](C3CCCC3)C(=O)N(C)[C@H](C(=O)N(C)C)CC(=O)N(C)[C@@H](C)C(=O)N[C@@H]([C@H](C)CC)C(=O)N(C)CC(=O)N(C)[C@H]3CCCCCN(C3=O)[C@@H](Cc3ccc(C(F)(F)F)cc3)C(=O)N(C)CC(=O)N[C@@H](CCc3cc(F)c(C(F)(F)F)c(F)c3)C(=O)N2C1 [PP0729]	B (a compound having 3 or more and less than 10 is denoted as B)	B (a compound having 3 or more and less than 10 is denoted as B)
CCO[C@@H]1C[C@H]2C(=O)NC3(CCC3)C(=O)N(C)[C@@H](C3CCCC3)C(=O)N(C)[C@H](C(=O)N(C)C)CC(=O)N(C)[C@@H](C)C(=O)N[C@@H]([C@H](C)CC)C(=O)N(C)CC(=O)N(C)[C@H]3CCCCN(C3=O)[C@@H](Cc3ccc(C(F)(F)F)cc3)C(=O)N(C)CC(=O)N[C@@H](CCc3cc(F)c(C(F)(F)F)c(F)c3)C(=O)N2C1 [PP0730]	C (A compound having a KD ratio of 0.1 or more and less than 3 is denoted as C)	C (A compound having a KD ratio of 0.1 or more and less than 3 is denoted as C)
CC[C@H](C)[C@@H]1NC(=O)[C@H](CC)N(C)C(=O)C[C@@H](C(=O)N(C)C)N(C)C(=O)[C@H](C2CCCC2)N(C)C(=O)C2(CCC2)NC(=O)[C@@H]2C[C@H](N3CCC(F)(F)CC3)CN2C(=O)[C@H](CCc2cc(F)c(C(F)(F)F)c(F)c2)NC(=O)CN(C)C(=O)[C@H](Cc2ccc(C(F)(F)F)cc2)N2CCCCC[C@@H](C2=O)N(C)C(=O)CN(C)C1=O [PP0731]	B (a compound having 3 or more and less than 10 is denoted as B)	B (a compound having 3 or more and less than 10 is denoted as B)
CC[C@H](C)[C@@H]1NC(=O)[C@H](CC)N(C)C(=O)C[C@@H](C(=O)N(C)C)N(C)C(=O)[C@H](C2CCCC2)N(C)C(=O)C2(CCC2)NC(=O)[C@@H]2C[C@H](N3CCC(F)(F)CC3)CN2C(=O)[C@H](CCc2cc(F)c(C(F)(F)F)c(F)c2)NC(=O)CN(C)C(=O)[C@H](Cc2ccc(C(F)(F)F)cc2)N2CCCC[C@@H](C2=O)N(C)C(=O)CN(C)C1=O [PP0732]	C (A compound having a KD ratio of 0.1 or more and less than 3 is denoted as C)	B (a compound having 3 or more and less than 10 is denoted as B)
CC[C@H](C)[C@@H]1NC(=O)[C@H](CC)N(C)C(=O)C[C@@H](C(=O)N(C)C)N(CC)C(=O)[C@H](C2CCCC2)N(C)C(=O)C2(CCC2)NC(=O)[C@@H]2C[C@@H](N3CCC(F)(F)CC3)CN2C(=O)[C@H](CCc2cc(F)c(C(F)(F)F)c(F)c2)NC(=O)CN(C)C(=O)[C@H](Cc2ccc(C(F)(F)F)cc2)N2CCCC[C@@H](C2=O)N(C)C(=O)CN(C)C1=O [PP0733]	B (a compound having 3 or more and less than 10 is denoted as B)	B (a compound having 3 or more and less than 10 is denoted as B)
CCCN1C(=O)CN(C)C(=O)CN(C)C(=O)[C@H]([C@@H](C)CC)NC(=O)[C@H](CC(C)C)N(C)C(=O)C[C@@H](C(=O)N(C)C)N(C)C(=O)[C@H](C2CCCC2)N(C)C(=O)[C@](C)(C2CC2)NC(=O)[C@@H]2CCCN2C(=O)[C@H](CCc2cc(F)c(C(F)(F)F)c(F)c2)NC(=O)CN(C)C(=O)[C@@H]1Cc1ccc(C(F)(F)F)cc1 [PP0734] ([NMeL]I[Sar][Sar][NPrPhe(4-CF3)][Sar][hPhe(3,5-F2-4-CF3)]P[X9][NMeGly(cPent)][NMeD]-NMe2; lactam N-11)	B (a compound having 3 or more and less than 10 is denoted as B)	C (A compound having a KD ratio of 0.1 or more and less than 3 is denoted as C)
CCCN1C(=O)CN(C)C(=O)CN(C)C(=O)[C@H]([C@@H](C)CC)NC(=O)[C@H](CC(C)C)N(C)C(=O)C[C@@H](C(=O)N(C)C)N(C)C(=O)[C@H](C2CCCC2)N(C)C(=O)[C@](C)(C(C)C)NC(=O)[C@@H]2CCCN2C(=O)[C@H](CCc2cc(F)c(C(F)(F)F)c(F)c2)NC(=O)CN(C)C(=O)[C@@H]1Cc1ccc(C(F)(F)F)cc1 [PP0735] ([NMeL]I[Sar][Sar][NPrPhe(4-CF3)][Sar][hPhe(3,5-F2-4-CF3)]P[αMeV][NMeGly(cPent)][NMeD]-NMe2; lactam N-11)	B (a compound having 3 or more and less than 10 is denoted as B)	C (A compound having a KD ratio of 0.1 or more and less than 3 is denoted as C)
CCCN1C(=O)CN(C)C(=O)CN(C)C(=O)[C@H]([C@@H](C)CC)NC(=O)[C@H](CC(C)C)N(C)C(=O)C[C@@H](C(=O)N(C)C)N(C)C(=O)[C@H](C2CCCC2)N(C)C(=O)[C@](C)([C@@H](C)CC)NC(=O)[C@@H]2CCCN2C(=O)[C@H](CCc2cc(F)c(C(F)(F)F)c(F)c2)NC(=O)CN(C)C(=O)[C@@H]1Cc1ccc(C(F)(F)F)cc1 [PP0736] ([NMeL]I[Sar][Sar][NPrPhe(4-CF3)][Sar][hPhe(3,5-F2-4-CF3)]P[αMeI][NMeGly(cPent)][NMeD]-NMe2; lactam N-11)	B (a compound having 3 or more and less than 10 is denoted as B)	C (A compound having a KD ratio of 0.1 or more and less than 3 is denoted as C)

From patent publication US20250230193A1, “CYCLIC COMPOUND HAVING SELECTIVE KRAS INHIBITORY EFFECT ON HRAS AND NRAS” (CHUGAI SEIYAKU KABUSHIKI KAISHA, priority 2022, published 2025)
